Reference: US12570666B2, “Furoindazole derivatives” (Bayer Aktiengesellschaft, priority 2019, dated 2026)

Assays:
rat DHT-PCOS model = assay: In vivo assay 1: DHT driven rat PCOS model; design: species or system Han-Wistar rats; conditions: 26 days of drug administration
Experimental: In Vivo Assay 1: GPR84 Ligand and Antagonist Characterization in PCOS Model
The efficacy of Example 3-2 in vivo on the treatment of POCS was measured in the DHT driven rat PCOS model. At 3 weeks of age, Han-Wistar rats were randomly divided into three experimental groups [control (n=10), DHT (n=10), and DHT plus Example 3-2 (n=10)] and implanted s.c. with 60-d continuous-DHT-release pellets (80 μg/d, Bayer AG, Germany). The dose of DHT was chosen to mimic the hyperandrogenic state in women with PCOS. Controls received identical pellets lacking the bioactive DHT molecule. Animal received a standard chow, only for the last week standard show was replaced by a high fat diet. Rats were weighted bi-weekly from 21 d of age. The study was concluded after 26 days of drug administration. […] Statistical analysis was performed with one-way analysis of variance, followed by Bonferroni's multiple comparison test against vehicle control groups using the GraphPad PRISM software, *p<0.05.

human GPR84 receptor = biological target: T1, human GPR84 receptor (Homo sapiens, UniProt Q9NQS5); assay: cAMP HTRF assay for identification of cellular GPR84 antagonists; type: cell-based; conditions: CHO-K1 cells stably expressing human GPR84; Forskolin + agonist 6-OAU (EC80); average or median values
T1 construct: frozen aliquots prepared by acCELLerate; host or cells: CHO-K1
Summary of the method: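 IC50 came from 4-parameter fits over 20 μM–0.07 nM (11 points, duplicate), normalized between DMSO (0%) and agonist-free (100% inhibition) wells. Readout: cAMP-d2/Eu-cryptate HTRF in hGPR84 CHO-K1 cells given forskolin plus agonist, compound preincubated 30 min at room temperature.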

[1] = tested on: mouse CFA model of inflammation; assay: In vivo assay 2: CFA pain model, dynamic weight-bearing (DWB); conditions: DWB 24 h after CFA
Experimental: In Vivo Assay 2: Effects of Example 3-2 in the CFA Pain Model
The efficacy of Example 3-2 in vivo on inflammatory pain was measured in inflamed paws after administration of complete Freund's adjuvant (CFA) (24 h) in the dynamic weight-bearing (DWB) model. The effects of repeated preventive treatment with Example 3-2 on pain following repeated oral administration (3×) in the mouse CFA model of inflammation were investigated using a preventive setting. The GPR84 antagonist Example 3-2 (20 or 60 mg/kg, 3× doses) was administered 2 h before injection of CFA and 6-8 h later at day 0. At 24 h after CFA application, the third dose of Example 3-2 was given 2 h before DWB testing. Statistical analysis was performed with one-way analysis of variance, followed by Bonferroni's multiple comparison test against vehicle control groups using the GraphPad PRISM software, *p<0.05.

T1 sequence (Q9NQS5 whole entry): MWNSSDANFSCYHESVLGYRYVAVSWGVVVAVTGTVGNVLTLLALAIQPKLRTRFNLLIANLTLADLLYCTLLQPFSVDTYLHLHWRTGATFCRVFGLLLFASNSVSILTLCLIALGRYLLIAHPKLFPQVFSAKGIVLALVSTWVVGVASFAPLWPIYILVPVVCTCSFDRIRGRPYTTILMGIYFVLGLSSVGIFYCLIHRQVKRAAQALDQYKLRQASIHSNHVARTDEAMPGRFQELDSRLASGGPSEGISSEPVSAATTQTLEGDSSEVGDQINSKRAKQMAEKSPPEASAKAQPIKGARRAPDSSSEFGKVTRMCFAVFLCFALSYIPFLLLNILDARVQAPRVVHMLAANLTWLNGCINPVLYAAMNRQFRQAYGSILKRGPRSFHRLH

| SMILES | weight gain (rat DHT-PCOS model; DHT driven rat PCOS model) | Relative weight vs. Vehicle control (rat DHT-PCOS model; rat DHT-PCOS model, p.o. 60 mg/kg morning dose + s.c. 60 mg/kg evening dose, DHT-Vehicle group 111%) | IC50 (human GPR84 receptor) [nM] | Weight distribution (% weight on injected paw) mean +/- SD ([1]; 3x 20 mg p.o., vehicle 43 +/- 20, not significant vs. vehicle group) | Weight distribution (% weight on injected paw) mean +/- SD ([1]; 3x 60 mg p.o., vehicle 43 +/- 20, significant vs. vehicle group) |
| --- | --- | --- | --- | --- | --- |
| Cc1c(C(=O)NC[C@@H]2CCCO2)oc2c1-c1nn(Cc3ccccn3)cc1CC2 [Example 3-2, 8-methyl-2-(pyridin-2-ylmethyl)-N-[(2S)-tetrahydrofuran-2-ylmethyl]-4,5-dihydro-2H-furo[2,3-g]indazole-7-carboxamide] | gained less weight compared to the untreated control | 103% * (significant vs. | 110 | 60 +/− 21 (not significant vs. vehicle group) % | 83 +/− 18 (significant vs. vehicle group) % |
| Cc1c(C(=O)NCc2cc(-c3ccccc3Cl)on2)oc2c1-c1nn(Cc3ccccn3)cc1CC2 [Example 17, N-{[5-(2-chlorophenyl)-1,2-oxazol-3-yl]methyl}-8-methyl-2-(pyridin-2-ylmethyl)-4,5-dihydro-2H-furo[2,3-g]indazole-7-carboxamide] |  |  | 10100 |  |  |
| Cc1cnc(CNC(=O)c2oc3c(c2C(F)(F)F)-c2nn(C[C@H]4COCCO4)cc2[C@H](C)C3)nc1 (single isomer, unassigned) [Example 303, (4R or 4S)-2-{[(2S)-1,4-dioxan-2-yl]methyl}-4-methyl-N-[(5-methylpyrimidin-2-yl)methyl]-8-(trifluoromethyl)-4,5-dihydro-2H-furo[2,3-g]indazole-7-carboxamide] |  |  | 6 |  |  |
| O=C(NC[C@@H]1COCCO1)c1oc2c(c1C(F)(F)F)-c1nn(Cc3ccncc3)cc1C1(CCC1)C2 [Example 281, N-[(2R)-1,4-Dioxan-2-ylmethyl]-2′-(pyridin-4-ylmethyl)-8′-(trifluormethyl)-2′,5′-dihydrospiro[cyclobutan-1,4′-furo[2,3-g]indazol]-7′-carboxamide] |  |  | 21 |  |  |
| Cc1c(C(=O)NC[C@H]2CCOC2)oc2c1-c1nn(Cc3ccccn3)cc1CC2 [Example 33-2, 8-methyl-2-(pyridin-2-ylmethyl)-N-[(3R)-tetrahydrofuran-3-ylmethyl]-4,5-dihydro-2H-furo[2,3-g]indazole-7-carboxamide] |  |  | 2890 |  |  |
